According to patent US20200170269A1, “ALLULOSE-CONTAINING COMPOSITION FOR PROMOTING EXCRETION OF VEGETABLE LIPIDS FROM THE BODY” (CJ CHEILJEDANG CORPORATION, priority 2016, published 2020):

Assays:
Format in all cases: in vivo
[1] = Body weight of C57BL/6J mice fed a high-fat diet containing vegetable lipids (palm oil, olive oil, soybean oil, margarine) with or without 5% allulose for 8 weeks; conditions: with allulose (5%), mean (SE in cell below); for Initial body weight: 0th week
Excerpt: Twenty C57BL/6J mice (male, 4-week-old) were purchased from The Jackson Laboratory (USA) and used. After the animals were acclimated to the feeding environment with a lab-chow diet (Purina Co., USA) for 4 weeks, they were divided by a randomized block design into two groups: a negative control group without the ingestion of allulose (n=10/one kind of lipid); and a test group with the ingestion of allulose (n=10/one kind of lipid) and they were fed with the diets for 8 weeks. For the negative control group, the high-fat diet was applied to the AIN-76 diet, and the vegetable lipids [palm oil ([…], Malaysia), olive oil (CJ CheilJedang Corp., South Korea), soybean oil (CJ CheilJedang Corp., South Korea), margarine (Ottogi Foods Co., Ltd., 'Corn margarine', raw materials: consisted of 80 wt % of vegetable lipids (palm olein oil, palm stearin oil, coconut oil, corn oil)] were included. For the test group, among the ingredients of the diet for the negative control group, 5 wt % of sucrose was replaced with allulose (crystalline allulose, 98 wt % of allulose based on dry solids, CJ CheilJedang Corporation) (Table 1). All the animal experiments were carried out under the approval of the Ethics Committee for Animal Studies at Kyungpook National University, South Korea (approval no. KNU-2013-18). All groups were allowed to ingest the iso-energetic diet of the same level by pair feeding based on the test group so as to exclude the calorie-reducing effect due to the allulose and the diets were kept refrigerated at 4° C. during the feeding period. The animals were housed in an individual cage under constant temperature (25±2° C.), constant humidity (50±5%), and a 12 h dark-light cycle. Dietary intake was measured at a constant time every day, and the body weight was measured at a constant time every week.

[2] = Fecal lipid excretion (triglycerides, cholesterol, free fatty acids) in C57BL/6J mice fed a high-fat diet containing vegetable lipids with or without 5% allulose for 8 weeks; conditions: in words
Excerpt: Twenty C57BL/6J mice (male, 4-week-old) were purchased from The Jackson Laboratory (USA) and used. After the animals were acclimated to the feeding environment with a lab-chow diet (Purina Co., USA) for 4 weeks, they were divided by a randomized block design into two groups: a negative control group without the ingestion of allulose (n=10/one kind of lipid); and a test group with the ingestion of allulose (n=10/one kind of lipid) and they were fed with the diets for 8 weeks. For the negative control group, the high-fat diet was applied to the AIN-76 diet, and the vegetable lipids [palm oil ([…], Malaysia), olive oil (CJ CheilJedang Corp., South Korea), soybean oil (CJ CheilJedang Corp., South Korea), margarine (Ottogi Foods Co., Ltd., 'Corn margarine', raw materials: consisted of 80 wt % of vegetable lipids (palm olein oil, palm stearin oil, coconut oil, corn oil)] were included. For the test group, among the ingredients of the diet for the negative control group, 5 wt % of sucrose was replaced with allulose (crystalline allulose, 98 wt % of allulose based on dry solids, CJ CheilJedang Corporation) (Table 1). All the animal experiments were carried out under the approval of the Ethics Committee for Animal Studies at Kyungpook National University, South Korea (approval no. KNU-2013-18). […] To remove the turbidity occurring from the development with 3 mM cholic acid (sodium salt), 0.5% Triton X-100 as an emulsifier was mixed with an enzyme test solution during the quantification of total cholesterol and neutral lipids. […] For the quantification of both free cholesterol (FC) and ester-type cholesterol (CE) in the feces, CE was converted by cholesterol esterase into FC and fatty acids. […] The resulting product and H2O2 which is the substrate were subjected to the reaction with peroxidase, phenol, and 4-amino-antipyrine to obtain a color developing material and the absorbance was measured at 500 nm. Quantification was carried out by comparing the measured value with the cholesterol standard curve. […]

[3] = Fecal lipid excretion (triglycerides, cholesterol, free fatty acids) in C57BL/6J mice fed a high-fat diet containing creamer with or without 5% allulose for 8 weeks; conditions: allulose consumed along with vegetable lipids in the creamer, in words
Excerpt: Sixteen C57BL/6J mice (male, 4-week-old) were purchased from The Jackson Laboratory (USA) and used. After the animals were acclimated to the feeding environment with a lab-chow diet (Purina Co., USA) for 4 weeks, they were divided by a randomized block design into two groups: a negative control group without the ingestion of allulose (PR, n=8); and a test group with the ingestion of allulose (PRA, n=8) and they were fed with the diets for 8 weeks. […] To remove the turbidity occurring from the development with 3 mM cholic acid (sodium salt), 0.5% Triton X-100 as an emulsifier was mixed with an enzyme test solution during the quantification of total cholesterol and neutral lipids. […] For the quantification of both free cholesterol (FC) and ester-type cholesterol (CE) in the feces, CE was converted by cholesterol esterase into FC and fatty acids. […] The resulting product and H2O2 which is the substrate were subjected to the reaction with peroxidase, phenol, and 4-amino-antipyrine to obtain a color developing material and the absorbance was measured at 500 nm. Quantification was carried out by comparing the measured value with the cholesterol standard curve. […]

O=C(CO)C(O)C(O)C(O)CO [allulose, Allulose (D-psicose)]
Initial body weight ([1]; HFD + margarine): 21.57±
Body weight on 8th week ([1]; HFD + margarine): 32.30±
Initial body weight ([1]; HFD + olive oil): 21.28±
Body weight on 8th week ([1]; HFD + olive oil): 28.87±
Initial body weight ([1]; HFD + palm oil): 21.62±
Body weight on 8th week ([1]; HFD + palm oil): 29.57±
Initial body weight ([1]; HFD + soybean oil): 21.23±
Body weight on 8th week ([1]; HFD + soybean oil): 28.84±
Cholesterol content in the feces / excretion of cholesterol ([2]; HFD + soybean oil with 5% allulose compared to the SO group): increased
Fecal excretion of lipids ([2]; allulose consumed along with each of palm oil, olive oil, soybean oil, and margarine): promoted
Effect of excreting lipids compared to ingestion of allulose along with other vegetable lipids ([2]; allulose taken together with soybean oil): excellent
Fecal excretion of lipids [3]: promoted
